Test results reported in patent US8034314B2, “Photoreactive compound specifically binding to calcium binding proteins” (priority 2004, dated 2011).

How the values were obtained:
[1] = target: T1, ryanodine receptor (RyR) / Ca2+-release channel (Oryctolagus cuniculus, UniProt P11716); assay: [3H]ryanodine binding to SR membranes; parameters: species or system rabbit
T1 construct: from tissue; host or cells: rabbit fast twitch skeletal muscle SR membranes
Experimental: (§1) Sarcoplasmic reticulum (SR) membranes were prepared from rabbit fast twitch skeletal muscle as described by Saito [Saito et al.: J. Cell Biol. 99 (1984) 875-85]. Mitochondria were isolated from rat liver as described by us previously [Gincel D. et al.: Biochem J. 358 (2001) 147-55]. VDAC was purified by a method developed in our laboratory, using columns of hydroxyapatite and reactive red agarose [Gincel D. et al.: J. Bioenerget. Biomembr. 32 (2000) 571-83].
For the determination of [^3H]ryanodine binding, SR membranes were incubated for 20-60 min at 37° C. in a standard binding solution containing 1M NaCl, 20 mM MOPS (pH 7.4), 50 μM free Ca^2+ and 20 nM [^3H]ryanodine. Unbound ryanodine was separated from protein-bound ryanodine by vacuum filtration of the sample through nitrocellulose filters (0.45 μm), followed by two washes with 4 ml ice-cold buffer containing 0.2 M NaCl, 10 mM MOPS (pH 7.4) and 50 μM CaCl2. The retained radioactivity in the dried filters was determined by liquid scintillation counting. Specific binding of [^3H]ryanodine was defined as the difference between the binding in the presence of 20 nM [^3H]ryanodine and in the presence of 20 μM unlabeled ryanodine.
(§2) The hexavalent RuR and the trivalent Ru360 have been employed in various studies as inhibitors of Ca^2+-dependent reactions. As shown here, even with no photoactivation, AzRu, in contrast to RuR and Ru360, was effective in inhibiting the SR Ca^2+-pump (Table 3). […] This may open the way to inhibit other Ca^2+-dependent activities that are not sensitive to RuR, such as the plasma membrane Ca^2+-ATPase. […] RuR was employed to improve mitochondrial production in ischemic reperfused pig myocardium, was employed in the nervous system to follow neuronal death progress and can act as an anti-oxidant in certain conditions. Considering the potent activity of AzRu in RuR-insensitive reactions (see Table 3), its applications in various biological studies should be explored. Ca^2+ accumulation in SR and mitochondria was assayed as described above in the absence and presence of different concentrations of RuR (0.05-100 μM), Ru360 (0.01-100 μM) or AzRu (0.1-100 μM). The concentration required for 50% inhibition (IC50) was derived from the plot of Ca^2+ accumulation activity or ryanodine binding as a function of the reagent concentration. The results are the mean±SEM of 3 to 5 experiments (Table 3).

[2] = system: Ca2+-dependent mitochondrial swelling (PTP opening); assay: Ca2+-dependent mitochondrial swelling (PTP opening); type: biochemical, rat; conditions: AzRu 20 μM; PTP opening was completely inhibited at this concentration
Experimental: as §1

[3] = system: Mg2+-dependent proteins and the Zn2+-sensitive KCNK0 channel; assay: Activities of Mg2+-dependent proteins and Zn2+-sensitive KCNK0 channel (summary of Table 1); type: biochemical; conditions: at 100 μM
Brain hexokinase = Brain hexokinase (Homo sapiens, UniProt P19367); assay: Brain hexokinase activity; type: biochemical; conditions: mean ± SEM
Chain of Brain hexokinase (P19367 whole entry): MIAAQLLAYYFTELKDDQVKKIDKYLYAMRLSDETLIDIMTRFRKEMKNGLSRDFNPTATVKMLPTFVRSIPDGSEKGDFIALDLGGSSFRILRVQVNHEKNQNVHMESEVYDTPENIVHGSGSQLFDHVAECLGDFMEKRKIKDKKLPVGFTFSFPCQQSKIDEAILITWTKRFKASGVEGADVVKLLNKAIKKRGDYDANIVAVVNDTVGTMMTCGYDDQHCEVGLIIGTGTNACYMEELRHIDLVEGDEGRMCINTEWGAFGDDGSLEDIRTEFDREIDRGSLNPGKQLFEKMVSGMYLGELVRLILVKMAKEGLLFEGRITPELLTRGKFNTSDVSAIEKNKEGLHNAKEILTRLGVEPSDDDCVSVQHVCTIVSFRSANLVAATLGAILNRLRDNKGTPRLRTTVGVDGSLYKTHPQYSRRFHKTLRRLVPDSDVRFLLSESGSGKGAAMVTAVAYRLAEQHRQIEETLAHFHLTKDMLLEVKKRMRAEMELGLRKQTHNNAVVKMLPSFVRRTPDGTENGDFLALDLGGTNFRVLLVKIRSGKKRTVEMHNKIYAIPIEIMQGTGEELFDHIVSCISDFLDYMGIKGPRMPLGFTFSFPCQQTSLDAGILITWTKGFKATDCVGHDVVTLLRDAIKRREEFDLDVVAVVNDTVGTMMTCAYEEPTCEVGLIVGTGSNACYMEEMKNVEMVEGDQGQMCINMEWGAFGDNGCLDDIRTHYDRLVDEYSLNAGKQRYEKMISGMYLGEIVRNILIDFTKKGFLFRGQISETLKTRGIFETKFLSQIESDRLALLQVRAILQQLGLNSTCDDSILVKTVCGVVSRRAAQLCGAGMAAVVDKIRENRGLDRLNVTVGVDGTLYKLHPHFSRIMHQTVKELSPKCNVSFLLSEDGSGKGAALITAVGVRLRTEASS

Lysozyme = Lysozyme (Gallus gallus, UniProt P00698); assay: Lysozyme activity; type: biochemical; conditions: AzRu 100 μM; mean ± SEM
Chain of Lysozyme (P00698 19-147): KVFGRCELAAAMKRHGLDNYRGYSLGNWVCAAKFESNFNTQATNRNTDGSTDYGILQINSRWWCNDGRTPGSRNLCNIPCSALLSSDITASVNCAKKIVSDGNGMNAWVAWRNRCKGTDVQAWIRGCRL

(Na+/K+)ATPase = (Na+/K+)ATPase activity; type: biochemical; conditions: mean ± SEM
Peroxidase = target: T2, Peroxidase (Armoracia rusticana, UniProt P00433); assay: Peroxidase activity; type: biochemical, horseradish; conditions: AzRu 20 μM; mean ± SEM
T2 construct: purchased Sigma
T2 sequence (P00433 31-338): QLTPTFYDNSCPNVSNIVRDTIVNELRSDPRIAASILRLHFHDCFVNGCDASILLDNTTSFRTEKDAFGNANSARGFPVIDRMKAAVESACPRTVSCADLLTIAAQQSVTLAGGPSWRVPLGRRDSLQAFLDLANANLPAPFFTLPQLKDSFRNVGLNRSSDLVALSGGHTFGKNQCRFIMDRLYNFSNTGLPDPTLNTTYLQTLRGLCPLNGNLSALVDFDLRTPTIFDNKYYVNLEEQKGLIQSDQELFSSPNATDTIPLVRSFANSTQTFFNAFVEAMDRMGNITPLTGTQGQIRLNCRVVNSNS
Text: (§3) Unlabelled ryanodine was obtained from Calbiochem. […] Ruthenium chloride was purchased from Aldrich.

Luciferase = target: T3, Luciferase (Photinus pyralis, UniProt P08659); assay: Luciferase activity; type: biochemical; conditions: mean ± SEM
T3 construct: purchased Sigma
T3 sequence (P08659 whole entry): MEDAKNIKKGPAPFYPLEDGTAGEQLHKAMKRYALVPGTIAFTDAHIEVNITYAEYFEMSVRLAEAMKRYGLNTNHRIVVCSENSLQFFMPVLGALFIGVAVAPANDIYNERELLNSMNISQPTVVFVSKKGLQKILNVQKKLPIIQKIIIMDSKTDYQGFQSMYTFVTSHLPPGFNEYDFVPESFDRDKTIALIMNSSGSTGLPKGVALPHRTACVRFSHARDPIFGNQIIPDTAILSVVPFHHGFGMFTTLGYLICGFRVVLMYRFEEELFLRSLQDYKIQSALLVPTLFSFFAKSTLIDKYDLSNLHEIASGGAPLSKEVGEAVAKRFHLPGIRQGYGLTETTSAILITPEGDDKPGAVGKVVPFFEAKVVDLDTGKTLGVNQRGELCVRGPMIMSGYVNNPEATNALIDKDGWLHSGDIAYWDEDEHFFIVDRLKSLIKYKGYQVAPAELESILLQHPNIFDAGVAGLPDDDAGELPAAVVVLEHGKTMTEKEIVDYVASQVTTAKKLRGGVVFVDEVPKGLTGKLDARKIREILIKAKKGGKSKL
Text: as §3

[4] = target: T4, Ca2+-pump (SERCA) of skeletal muscle sarcoplasmic reticulum (Oryctolagus cuniculus, UniProt P04191); assay: Ca2+ uptake/accumulation in SR membranes (Ca2+-pump activity); type: biochemical, rabbit
T4 construct: Sarcoplasmic reticulum (SR) membranes were prepared from rabbit fast twitch skeletal muscle; from tissue; host or cells: rabbit fast twitch skeletal muscle SR membranes
T4 sequence (P04191 1-994 isoform P04191-2): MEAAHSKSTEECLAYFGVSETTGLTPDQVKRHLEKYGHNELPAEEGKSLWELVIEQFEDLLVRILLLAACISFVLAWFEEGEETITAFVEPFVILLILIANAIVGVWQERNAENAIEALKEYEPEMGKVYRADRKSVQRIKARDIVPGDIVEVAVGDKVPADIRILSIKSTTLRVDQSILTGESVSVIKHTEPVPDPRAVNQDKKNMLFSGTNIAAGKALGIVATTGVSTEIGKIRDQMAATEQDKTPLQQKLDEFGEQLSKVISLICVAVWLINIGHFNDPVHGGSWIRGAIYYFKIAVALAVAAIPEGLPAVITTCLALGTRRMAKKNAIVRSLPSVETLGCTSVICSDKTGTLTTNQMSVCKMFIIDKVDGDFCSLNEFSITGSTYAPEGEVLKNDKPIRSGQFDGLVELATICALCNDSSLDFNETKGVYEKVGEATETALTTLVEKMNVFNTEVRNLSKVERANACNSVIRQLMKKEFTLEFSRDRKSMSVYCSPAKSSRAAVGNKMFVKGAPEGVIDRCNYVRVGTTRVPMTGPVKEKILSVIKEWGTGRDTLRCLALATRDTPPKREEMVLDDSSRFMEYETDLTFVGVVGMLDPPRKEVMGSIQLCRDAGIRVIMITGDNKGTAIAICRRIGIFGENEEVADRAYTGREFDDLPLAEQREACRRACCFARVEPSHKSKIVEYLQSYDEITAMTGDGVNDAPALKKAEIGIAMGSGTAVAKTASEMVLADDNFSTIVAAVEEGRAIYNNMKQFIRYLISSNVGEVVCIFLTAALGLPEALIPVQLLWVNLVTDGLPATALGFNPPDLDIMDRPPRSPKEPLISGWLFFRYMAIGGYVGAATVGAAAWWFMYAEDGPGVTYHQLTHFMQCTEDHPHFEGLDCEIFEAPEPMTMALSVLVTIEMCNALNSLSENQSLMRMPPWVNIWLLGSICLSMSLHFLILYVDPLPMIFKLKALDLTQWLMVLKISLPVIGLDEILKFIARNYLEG
Experimental: as §1
Ca^2+-accumulation in freshly prepared mitochondria (0.5 mg/ml) was assayed for 1 to 20 minutes at 30° C. in the presence of 225 mM mannitol, 75 mM sucrose, 120 μM CaCl2 (containing 3×10^4 cpm/nmol ^45Ca^2+), 5 mM HEPES/KOH pH 7.0, and 5 mM succinate with 0.1 mM Pi, or 4 mM MgCl2 with 3 mM ATP. The Ca^2+-uptake was terminated by rapid Millipore filtration, followed by a wash with 5 ml of 0.15 M KCl. The Ca^2+-accumulation in SR was determined as described previously [Shoshan-Barmatz V. & Shaineberg A.: Biochim. Biophys. Acta 1065 (1991) 82-8]. Electron transport from succinate to cytochrome c was described in above cited article [Gincel D. et al.: J. Bioenerget. Biomembr. 32 (2000) 571-83].
The preparation of SR membranes from skeletal muscle, and the measurement of Ca^2+-accumulation were carried out as described above.
as §2

Choline oxidase = target: T5, Choline oxidase (Arthrobacter globiformis, UniProt Q7X2H8); assay: Choline oxidase activity; type: biochemical; conditions: AzRu 100 μM; mean ± SEM
T5 construct: purchased Sigma
T5 sequence (Q7X2H8 whole entry, species assumed): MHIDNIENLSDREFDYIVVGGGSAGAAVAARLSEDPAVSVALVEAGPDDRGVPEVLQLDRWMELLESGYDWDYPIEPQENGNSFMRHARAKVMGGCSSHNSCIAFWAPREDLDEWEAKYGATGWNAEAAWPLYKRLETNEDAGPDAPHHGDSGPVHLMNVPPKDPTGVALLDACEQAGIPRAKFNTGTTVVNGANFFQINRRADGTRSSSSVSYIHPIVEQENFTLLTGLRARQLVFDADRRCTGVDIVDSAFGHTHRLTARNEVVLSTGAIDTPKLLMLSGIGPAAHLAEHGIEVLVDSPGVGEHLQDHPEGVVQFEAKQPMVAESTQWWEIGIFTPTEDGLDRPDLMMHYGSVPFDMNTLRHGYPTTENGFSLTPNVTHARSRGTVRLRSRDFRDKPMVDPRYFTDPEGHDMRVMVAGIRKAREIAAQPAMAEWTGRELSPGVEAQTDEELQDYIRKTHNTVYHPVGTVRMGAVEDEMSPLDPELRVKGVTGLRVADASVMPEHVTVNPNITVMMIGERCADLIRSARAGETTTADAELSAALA
Text: as §3

VDAC = target: T6, VDAC (Rattus norvegicus, UniProt Q9Z2L0); assay: VDAC channel conductance in planar lipid bilayer; type: biochemical
T6 construct: VDAC was purified by a method developed in our laboratory, using columns of hydroxyapatite and reactive red agarose; from tissue; host or cells: mitochondria
T6 sequence (Q9Z2L0 whole entry): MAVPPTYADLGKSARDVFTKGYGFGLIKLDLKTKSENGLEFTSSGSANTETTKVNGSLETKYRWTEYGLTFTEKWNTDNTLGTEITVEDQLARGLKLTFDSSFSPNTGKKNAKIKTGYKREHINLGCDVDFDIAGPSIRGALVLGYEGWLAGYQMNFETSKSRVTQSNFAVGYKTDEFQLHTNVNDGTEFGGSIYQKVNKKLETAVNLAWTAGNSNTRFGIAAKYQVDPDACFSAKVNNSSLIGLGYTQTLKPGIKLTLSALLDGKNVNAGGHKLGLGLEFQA
Experimental: as §1
Reconstitution of purified VDAC into planar lipid bilayer (PLB), single channel current recording, and data analysis were carried out as described in above mentioned publication.
VDAC is a channel protein which transports Ca^2+ across the mitochondrial outer membrane. […] Purified VDAC was reconstituted into a planar lipid bilayer as multichannels. The channel activity was measured as the ions passed the current across the bilayer in response to a voltage gradient of 10 mV, as a function of time. In the absence of AzRu, VDAC is stable in a long-lived, fully opened state and remains open for up to 2 hours of recording. However, addition of AzRu to the same channel induced VDAC closure, in a time-dependent manner. Ca^2+, in the presence of 1 M NaCl, prevented the inhibitory effect of AzRu on VDAC activity.

[5] = +UV (photoactivation), mean ± SEM

azido-ruthenium [AzRu]
IC50 [1, 5]: 1210 ± 60 nM
Activity (% of control), Ryanodine binding by SR RyR ([1]; AzRu 20 μM, mean ± SEM): 18 ± 6 % of control
Effect on binding of ryanodine to SR membranes ([1]; FIG. 8): strongly inhibited
IC50 ([1]; no UV, mean ± SEM of 3 to 5 experiments): 2900 ± 170 nM
Activity (% of control), Ca2+-dependent mitochondrial swelling [2]: 0 % of control
Inhibition of activities of Mg2+-dependent proteins and Zn2+-sensitive KCNK0 channel [3]: ~30%
Activity (% of control), Brain hexokinase (Brain hexokinase; AzRu 20 μM): 73 ± 7 % of control
Activity (% of control), Brain hexokinase (Brain hexokinase; AzRu 100 μM): 61 ± 3 % of control
Activity (% of control), Lysozyme (Lysozyme): 101 ± 3 % of control
Activity (% of control), (Na+/K+)ATPase ((Na+/K+)ATPase; AzRu 20 μM): 92 ± 5 % of control
Activity (% of control), (Na+/K+)ATPase ((Na+/K+)ATPase; AzRu 100 μM): 71 ± 4 % of control
Activity (% of control), Peroxidase (Peroxidase): 39 ± 4 % of control
Activity (% of control), Luciferase (Luciferase; AzRu 20 μM): 97 ± 1 % of control
Activity (% of control), Luciferase (Luciferase; AzRu 100 μM): 67 ± 3 % of control
IC50 [4, 5]: 1010 ± 95 nM
Activity (% of control), Ca2+ uptake in SR (SERCA) ([4]; AzRu 20 μM, mean ± SEM of 3 to 6 experiments): 13 ± 6 % of control
Change of sensitivity of the Ca2+-pump activity to the reagent by photoactivation ([4]; UV irradiation, SR membranes): increased more than two-fold
IC50 ([4]; no photoactivation, mean ± SEM of 3 to 5 experiments): 4910 ± 55 nM
Activity (% of control), Choline oxidase (Choline oxidase): 85 ± 3 % of control
Activity (% of control), VDAC conductance (VDAC; AzRu 20 μM, mean ± SEM): 19 ± 5 % of control
Effect on VDAC conductance in multi-channel experiments (VDAC; all voltages tested): decreased VDAC conductance
Effect on VDAC channel activity (VDAC; purified VDAC in planar lipid bilayer, voltage gradient 10 mV): inhibited the channel activity of VDAC
